Tests used:
[1] = tested on: healthy women in their 20's to 30's; details: 17 subjects, subjective five-grade evaluation, FIG. 6
Experimental: (§1) In the verification test using this method, hydrogen mainly produced by the hydrogen generating device (an electrolytic hydrogen gas suction tool 100 which will be described later) is orally suctioned. More specifically, hydrogen generated by the hydrogen generatingor device 100 is suctioned by spontaneous breathing for approximately 10 minutes. The amount of hydrogen generated per minute is 8 cc per minute by electrolysis (4 cc of oxygen is also generated at the same time) and thus, 12 cc per minute of a gas mixture of oxygen/hydrogen is generated. This gas mixture is suctioned by spontaneous breathing. Normally, since an adult suctions approximately 5 litters of air per minute under spontaneous breathing, assuming that all the generated gas mixture is suctioned, the gas mixture at 0.24% at the maximum (hydrogen 0.18%, oxygen 0.06%) is contained in an expiratory air.
The subjects were 20 selected subjects, grouped into two groups, considering the ages and test time slots (morning and afternoon), and measurement was conducted for 10 subjects a day.
The testing method is as follows: • (1) In the main test, each subject should suction hydrogen. • (2) Tests/evaluations which will be described later shall be conducted for each subject while each subject is suctioning hydrogen, and by comparing/examining each evaluation before and after the suctioning, physiological effects by hydrogen is verified. • (3) For the subject who is sitting on a chair for measurement with his/her eyes open, a test manager or a test cooperator prepares a hydrogen generating tool (not generating hydrogen) which is a control and assigns it to the subject. The subject shall put his/her mouth to a nozzle 5 of an electrolytic hydrogen gas suction tool 100 which is this hydrogen generating device (see FIGS. 7 to 10) or a tube portion connected to that and normally breath for approximately 10 minutes. After that, each measurement which will be described later is conducted at any time. After that, the subject puts his/her mouth to the nozzle 5 of the electrolytic hydrogen gas suction tool 100 which generates hydrogen or the tube portion connected to that as a subject sample and suctions hydrogen for 10 minutes similarly. After that, each measurement is made. If abnormality is found in the subject while the subject is suctioning hydrogen, the test manager or the test cooperator shall immediately stop the suctioning. When the suctioning of hydrogen is stopped, the practitioner shall record the fact of the stop and suctioning time in a clinical report. • (4) The test manager shall check if a harmful phenomenon has occurred in the subject during the test or not.
For an action of the central nervous activity by hydrogen, a brain stress test utilized for the purpose of evaluating an activity degree and a stress degree of the brain is conducted, and the brain activity degree (degree of fatigue) is measured by a flicker device. Moreover, influences of a sight function, a skin sensibility function, a gravity balance function and the like are measured by a brain executive function meter. For a change in emotional feelings, an ability of concentration, sleepiness and the like are examined by interview by using a multilateral emotional state scale. The respective measurements will be described in brief below.

[2] = tested on: healthy women in their 20's to 30's; details: 17 subjects, before vs after suctioning, Table 2 and FIG. 2
Experimental: as §1, with “Normally, since an adult suctions approximately 5 litters of air per minute under spontaneous breathing, assuming that all the generated gas mixture is suctioned, the gas mixture at 0.24% at the maximum (hydrogen 0.18%, oxygen 0.06%) is contained in an expiratory air.” left out
By paying attention to a physiological reaction that a skin temperature of a distal end section (the forehead center part and a first knuckle-joint cushion side part of the index finger are measured this time) is changed in accordance with predominance of the sympathetic nervous activity, the change in the skin temperature is measured by a temperature sensor over time before and after drinking of the hydrogen solution. The temperature sensor body has an approximate size of a thickness of 1 mm and a diameter of 3 mm, and the change in the skin temperature is measured by a recorder in a wired manner from the sensor.

[3] = tested on: healthy women in their 20's to 30's; details: 17 subjects, before vs after suctioning, Table 1 and FIG. 1
Experimental: as §1
The subjects were 20 selected subjects, grouped into two groups, considering the ages and test time slots (morning and afternoon), and measurement was conducted for 10 subjects a day. […]

[4] = tested on: healthy women in their 20's to 30's; details: 17 subjects, Table 4 and FIG. 5
Experimental: as §1, with “Normally, since an adult suctions approximately 5 litters of air per minute under spontaneous breathing, assuming that all the generated gas mixture is suctioned, the gas mixture at 0.24% at the maximum (hydrogen 0.18%, oxygen 0.06%) is contained in an expiratory air.” left out
(§2) For an action of the central nervous activity by hydrogen, a brain stress test utilized for the purpose of evaluating an activity degree and a stress degree of the brain is conducted, and the brain activity degree (degree of fatigue) is measured by a flicker device. Moreover, influences of a sight function, a skin sensibility function, a gravity balance function and the like are measured by a brain executive function meter. […]
Actions to the brain executive functions (right-and-left cognitive function, sight function, short-time memory, skin sensibility, gravity balance and the like are comprehensively analyzed) are analyzed (measurement instrument: Brain executive function meter by Anima).

[5] = tested on: healthy women in their 20's to 30's; details: 17 subjects, evaluation in score
Experimental: as §1, with “air. […]” for “air.”
as §2

SMILES: [HH] [hydrogen]
- fatigue feeling, change by hydrogen suctioning [1]: decreased
- feeling of concentration, change by hydrogen suctioning [1]: significantly raised
- feeling of exhilarating, change by hydrogen suctioning [1]: significantly raised
- feeling of refreshing, change by hydrogen suctioning [1]: significantly raised
- spontaneous stress, change by hydrogen suctioning [1]: decreased
- peripheral skin temperature, change by hydrogen suctioning [2]: significantly raised
- pupil contraction rate (CR value), change by hydrogen suctioning [3]: significantly increased
- right-and-left cognitive function, change by hydrogen suctioning [4]: remarkable improvement
- short-term memory, change by hydrogen suctioning [4]: remarkable improvement
- brain stress, change by hydrogen suctioning ([5]; Table 3 and FIG. 3): significantly decreased
- brain rotation degree score, change by hydrogen suctioning ([5]; Table 3 and FIG. 4): significantly raised
